In patent US10987317B2, “Inhibition of glutaminase C” (Cornell University, priority 2009, dated 2021):

Assays:
[1] = system: GA activity in Dbl- and Cdc42(F28L)-expressing NIH 3T3 cells; test: GA activity in mitochondrial fractions of transformed fibroblasts; type: cell-based; conditions: 10 μM
Method: (§1) 100%=620 moles of glutamine hydrolyzed per minute per mole of enzyme. Data represent the average of 3 experiments (±s.d.). […] Following precipitation of the beads and re-suspension, the samples are analyzed by Western blotting with anti-V5 antibody. […] Data represent the average of 3 experiments (±s.d.). […] Data represent the average of 3 experiments (±s.d.). […] Data represent the average of 3 experiments (±s.d.). FIG. 3E NIH 3T3 cells transiently expressing Dbl are assayed for focus formation in the presence of 10 μM 968 alone or together with […] dimethyl α-ketoglutarate. […] 100%=680 nM glutamine hydrolyzed per minute per 10^5 cells. Data are the average of 3 experiments (=s.d.). […] 100%=750 nM glutamine hydrolyzed per minute per 10^5 cells. Data represent the average of 3 experiments (±s.d.).
(§2) FIGS. 4A-E illustrate the role of glutaminase C activity in cellular transformation. […] Data represent the average of 3 experiments (±s.d.). […] Data represent the average of 3 experiments (±s.d.). […] 100% represents the activity measured in untreated Dbl-transformed cells. The data represent the average of 2 experiments. […] 100% represents the activity measured in untreated SKBR3 cells. The data represent the average of 2 experiments. […] Data represent the average of 3 experiments (±s.d.).
FIGS. 11A-E illustrate the effects of different treatments on GA activity. […] The addition of Pi stimulated the GA activity in control 3T3 cells, Dbl-expressing cells, and Cdc42(F28L)-expressing cells by ˜6-fold, 2-fold, and 3-fold, respectively. 100% represents the Pi-stimulated activity measured for Dbl-transformed cells that are not treated with 968. Data is the average of 3 experiments (±s.d.). […] The addition of Pi stimulated the GA activity of HMECs, MDA-MB231 cells, and SKBR3 cells by ˜5-fold, 2-fold, and 1.4-fold, respectively. 100% represents the Pi-stimulated activity for SKBR3 cells that were not treated with 968. Data are the average of 3 experiments (±s.d.). […] Mitochondrial fractions are prepared from equal numbers of cells and assayed for GA activity in the presence or absence of 133 mM Pi. The data are plotted as the percentage of GA activity measured for untreated SKBR3 cells and represent the average of 2 experiments. […] 100% represents the P1-stimulated activity measured for untreateDbl-transformed cells. The data represent the average of 2 experiments. […] 100% represents the Pi-stimulated activity for untreated SKBR3 cells. The data represent the average of 2 experiments.
Mitochondrial preparations were obtained using the mitochondria isolation kit from QIAGEN (Cat #37612). A suspension containing 2×10^7 cells was transferred into a 50 ml conical tube and centrifuged at 500×g for 10 minutes at 4° C. […]

[2] = system: GA activity in MDA-MB231 cells; test: GA activity in mitochondrial fractions; type: cell-based, human; conditions: 10 μM, phosphate-independent
Method: as §1
FIGS. 11A-E illustrate the effects of different treatments on GA activity. […] The addition of Pi stimulated the GA activity in control 3T3 cells, Dbl-expressing cells, and Cdc42(F28L)-expressing cells by ˜6-fold, 2-fold, and 3-fold, respectively. 100% represents the Pi-stimulated activity measured for Dbl-transformed cells that are not treated with 968. […] The data are plotted as the percentage of GA activity measured for untreated SKBR3 cells and represent the average of 2 experiments. […] 100% represents the P1-stimulated activity measured for untreateDbl-transformed cells. […]

[3] = biological target: T1, V5-tagged GAC from Dbl-transformed NIH 3T3 cells (Mus musculus, UniProt D3Z7P3); test: GA activity of immunoprecipitated V5-GAC; type: cell-based; conditions: absence of phosphate
T1 construct: expressed in transfected cells; host or cells: NIH 3T3 cells stably expressing oncogenic Dbl
T1 sequence (D3Z7P3 55-603 isoform D3Z7P3-2 limits assumed): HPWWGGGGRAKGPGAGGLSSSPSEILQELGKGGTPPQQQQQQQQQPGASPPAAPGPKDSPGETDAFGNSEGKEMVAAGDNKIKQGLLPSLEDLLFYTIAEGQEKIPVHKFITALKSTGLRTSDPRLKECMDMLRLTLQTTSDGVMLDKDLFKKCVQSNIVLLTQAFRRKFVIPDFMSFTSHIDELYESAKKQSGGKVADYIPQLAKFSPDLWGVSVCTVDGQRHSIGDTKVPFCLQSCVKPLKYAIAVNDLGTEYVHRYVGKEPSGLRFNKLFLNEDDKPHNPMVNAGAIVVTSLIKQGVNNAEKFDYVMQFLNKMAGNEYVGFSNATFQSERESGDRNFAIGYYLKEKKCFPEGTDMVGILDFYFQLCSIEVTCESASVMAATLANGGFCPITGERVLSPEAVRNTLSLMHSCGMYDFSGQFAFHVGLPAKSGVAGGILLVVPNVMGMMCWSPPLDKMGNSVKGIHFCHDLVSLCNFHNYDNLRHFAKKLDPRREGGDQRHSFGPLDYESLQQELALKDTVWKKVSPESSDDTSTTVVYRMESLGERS
Excerpt: as §2
NIH 3T3 cells or NIH 3T3 cells stably expressing the Dbl oncogene, were transiently transfected with DNA encoding a V5-tagged GAC. The cells were then harvested and the ectopically expressed GAC was isolated by immunoprecipitation via the V5 tag. The VS-GAC obtained from one of the Dbl samples was additionally treated with alkaline phosphtase under dephosphorylation conditions. The samples were then assayed for glutaminase activity in the absence of phosphate (top panel) and the relative expression levels of VS-GAC was determined by Western blotting using an anit-V5 antibody (bottom panel).
NIH 3T3 cells stably expressing oncogenic Dbl were transiently transfected with DNA encoding VS-tagged GAC, and cells were treated with either 968 or BA-968 ([…]) as indicated for 48 hours. The cells were then harvested and the ectopically expressed GAC was isolated by immunoprecipitation via the V5 tag. The samples were then assayed for glutaminase activity in the absence of phosphate (top panel) and the relative expression levels of VS-GAC was determined by Western blotting using an anti-V5 antibody (bottom panel).

## CN(C)c1ccc(C2Nc3ccc4ccccc4c3C3=C2C(=O)CC(C)(C)C3)cc1Br (centres unmarked) [Compound 968, 5-[3-bromo-4-(dimethylamino)phenyl]-2,2-dimethyl-2,3,5,6-tetrahydrobenzo[a]]
[1]
  GA activity of transformed cells: inhibits
[1]; 133 mM Pi
  sensitivity of basal versus phosphate-stimulated GA activity: basal activity being more sensitive
[2]
  basal GA activity: sensitive
[3]; 10 μM
  GA activity IPed from Dbl-transformed cells: inhibited
[3]; cells treated 10 mM for 48 hours
  GAC activity after treatment of cells (FIG. 19): effective inhibitors
